The text below walks through data of US20260363243A1 (priority 2022, published 2026).

For this experiment, the system named is cucumber downy mildew. The experiment can be described thus: Activity in vivo for inhibiting cucumber downy mildew (potting method, greenhouse).
Where [1] appears, read: 0.078 mg/L, re-screening, Table 2.
Where [2] appears, read: 0.312 mg/L, re-screening, Table 2.
The mark [3] stands for this setting: 1.25 mg/L, re-screening, Table 2.

Source text: The test and investigation method refers to a SOP-SC-1098 cucumber downy mildew potting method in the fungicide section of Standard operation Specification for testing biological Activity of pesticides written by Kang Zhuo and Gu Baogen.

`CO/C=C/C(=O)N1CCC(c2nc(C3=NOC(c4c(F)cccc4F)C3)cs2)CC1` (stereo not shown) [Compound I-1]: the Control effect entry by setting is: (1.25 mg/L, Table 1) “A (90%≤A≤100%)”; (5 mg/L, Table 1) “A (90%≤A≤100%)”; (20 mg/L, Table 1) “A (90%≤A≤100%)”.
Regarding `CO/C=C(\F)C(=O)N1CCC(c2nc(C3=NOC(c4c(F)cccc4F)C3)cs2)CC1` (stereo not shown) [Compound I-2], the Control effect result (1.25 mg/L, Table 1) is “B (75%≤B<90%)”; the Control effect result (5 mg/L, Table 1) is on record as “B (75%≤B<90%)”; the Control effect result (20 mg/L, Table 1) was “A (90%≤A≤100%)”.
As for `CO/C=C(\Cl)C(=O)N1CCC(c2nc(C3=NOC(c4c(F)cccc4F)C3)cs2)CC1` (stereo not shown) [Compound I-3], the Control effect result is, setting by setting: (1.25 mg/L, Table 1) “A (90%≤A≤100%)”; (5 mg/L, Table 1) “A (90%≤A≤100%)”; (20 mg/L, Table 1) “A (90%≤A≤100%)”.
In the case of `CO/C=C(\Br)C(=O)N1CCC(c2nc(C3=NOC(c4c(F)cccc4F)C3)cs2)CC1` (stereo not shown) [Compound I-4], the Control effect result runs as follows: (1.25 mg/L, Table 1) “B (75%≤B<90%)”; (5 mg/L, Table 1) “A (90%≤A≤100%)”; (20 mg/L, Table 1) “A (90%≤A≤100%)”.
Turning to `CO/C=C(\I)C(=O)N1CCC(c2nc(C3=NOC(c4c(F)cccc4F)C3)cs2)CC1` (stereo not shown) [Compound I-5], the Control effect entry reads like this: (1.25 mg/L, Table 1) “C (60%≤C<75%)”; (5 mg/L, Table 1) “B (75%≤B<90%)”; (20 mg/L, Table 1) “B (75%≤B<90%)”.
Consider `CO/C=C(\C#N)C(=O)N1CCC(c2nc(C3=NOC(c4c(F)cccc4F)C3)cs2)CC1` (stereo not shown) [Compound I-6], for which the Control effect entry (20 mg/L, Table 1) was “B (75%≤B<90%)”.
`CO/C=C(\C)C(=O)N1CCC(c2nc(C3=NOC(c4c(F)cccc4F)C3)cs2)CC1` (stereo not shown) [Compound I-7]: the Control effect entry is, setting by setting: (5 mg/L, Table 1) “B (75%≤B<90%)”; (20 mg/L, Table 1) “A (90%≤A≤100%)”.
Consider `CC/C(=C\OC)C(=O)N1CCC(c2nc(C3=NOC(c4c(F)cccc4F)C3)cs2)CC1` (stereo not shown) [Compound I-8], for which the Control effect entry is “A (90%≤A≤100%)” (1.25 mg/L, Table 1); “A (90%≤A≤100%)” (5 mg/L, Table 1); “A (90%≤A≤100%)” (20 mg/L, Table 1).
In the case of `CCC/C(=C\OC)C(=O)N1CCC(c2nc(C3=NOC(c4c(F)cccc4F)C3)cs2)CC1` (stereo not shown) [Compound I-9], the Control effect result was “A (90%≤A≤100%)” (1.25 mg/L, Table 1); “A (90%≤A≤100%)” (5 mg/L, Table 1); “A (90%≤A≤100%)” (20 mg/L, Table 1).
Turning to `CO/C=C(/C(=O)N1CCC(c2nc(C3=NOC(c4c(F)cccc4F)C3)cs2)CC1)C(C)C` (stereo not shown) [Compound I-10], the Control effect result runs as follows: (1.25 mg/L, Table 1) “A (90%≤A≤100%)”; (5 mg/L, Table 1) “A (90%≤A≤100%)”; (20 mg/L, Table 1) “A (90%≤A≤100%)”.
Take `CO/C=C(/C(=O)N1CCC(c2nc(C3=NOC(c4c(F)cccc4F)C3)cs2)CC1)c1ccccc1C` (stereo not shown) [Compound I-11]: where the note is “20 mg/L, Table 1”, the Control effect entry is “C (60%≤C<75%)”.
On to `CO/C=C(/C(=O)N1CCC(c2nc(C3=NOC(c4c(F)cccc4F)C3)cs2)CC1)c1ccccc1` (stereo not shown) [Compound I-12], for which the Control effect entry is listed as “D (45%≤D<60%)” (5 mg/L, Table 1) and “B (75%≤B<90%)” (20 mg/L, Table 1).
Turning to `CO/C=C(/C(=O)N1CCC(c2nc(C3=NOC(c4c(F)cccc4F)C3)cs2)CC1)c1ccc(C)cc1` (stereo not shown) [Compound I-13], the Control effect entry is “B (75%≤B<90%)” (5 mg/L, Table 1) and “A (90%≤A≤100%)” (20 mg/L, Table 1).
Consider `CO/C=C(/C(=O)N1CCC(c2nc(C3=NOC(c4c(F)cccc4F)C3)cs2)CC1)c1cc(C)ccc1C` (stereo not shown) [Compound I-14], for which the Control effect result by setting is: (1.25 mg/L, Table 1) “A (90%≤A≤100%)”; (5 mg/L, Table 1) “A (90%≤A≤100%)”; (20 mg/L, Table 1) “A (90%≤A≤100%)”.
On to `CO/C=C(/C(=O)N1CCC(c2nc(C3=NOC(c4c(F)cccc4F)C3)cs2)CC1)c1cc(Cl)ccc1Cl` (stereo not shown) [Compound I-15], for which the Control effect result (5 mg/L, Table 1) is “C (60%≤C<75%)” and the Control effect entry (20 mg/L, Table 1) is given as “C (60%≤C<75%)”.
Turning to `C=CC(=O)N1CCC(c2nc(C3=NOC(c4c(F)cccc4F)C3)cs2)CC1` (stereo not shown) [Compound I-16], the Control effect entry runs as follows: (1.25 mg/L, Table 1) “D (45%≤D<60%)”; (5 mg/L, Table 1) “C (60%≤C<75%)”; (20 mg/L, Table 1) “B (75%≤B<90%)”.
On the same counts, the results for `CCO/C=C/C(=O)N1CCC(c2nc(C3=NOC(c4c(F)cccc4F)C3)cs2)CC1` (stereo not shown) [Compound I-17] are “A (90%≤A≤100%)”, “A (90%≤A≤100%)” and “A (90%≤A≤100%)”.
Take `CO/N=C(/C(=O)N1CCC(c2nc(C3=NOC(c4c(F)cccc4F)C3)cs2)CC1)c1ccccc1` (stereo not shown) [Compound I-18]: the Control effect entry (20 mg/L, Table 1) is listed as “D (45%≤D<60%)”.
`CO/N=C(/C(=O)N1CCC(c2nc(C3=NOC(c4c(F)cccc4F)C3)cs2)CC1)c1ccccc1C` (stereo not shown) [Compound I-19]: the Control effect result by setting is: under setting [1], “B (75%≤B<90%)”; under setting [2], “A (90%≤A≤100%)”; (1.25 mg/L, Table 1) “A (90%≤A≤100%)”; under setting [3], “A (90%≤A≤100%)”; (5 mg/L, Table 1) “A (90%≤A≤100%)”; (20 mg/L, Table 1) “A (90%≤A≤100%)”.
Consider `CO/N=C(/C(=O)N1CCC(c2nc(C3=NOC(c4c(F)cccc4F)C3)cs2)CC1)c1cccc(C)c1` (stereo not shown) [Compound I-20], for which, under “20 mg/L, Table 1”, the Control effect entry is “D (45%≤D<60%)”.
Turning to `CO/N=C(/C(=O)N1CCC(c2nc(C3=NOC(c4c(F)cccc4F)C3)cs2)CC1)c1ccc(C)cc1C` (stereo not shown) [Compound I-21], the Control effect entry (20 mg/L, Table 1) is recorded as “D (45%≤D<60%)”.
Consider `CO/N=C/C(=O)N1CCC(c2nc(C3=NOC(c4c(F)cccc4F)C3)cs2)CC1` (stereo not shown) [Compound I-22], for which the Control effect entry is recorded as “B (75%≤B<90%)” under setting [1]; “B (75%≤B<90%)” under setting [2]; “A (90%≤A≤100%)” (1.25 mg/L, Table 1); “A (90%≤A≤100%)” under setting [3]; “A (90%≤A≤100%)” (5 mg/L, Table 1); “A (90%≤A≤100%)” (20 mg/L, Table 1).
On to `CO/N=C(\C)C(=O)N1CCC(c2nc(C3=NOC(c4c(F)cccc4F)C3)cs2)CC1` (stereo not shown) [Compound I-23], for which the Control effect entry reads like this: (1.25 mg/L, Table 1) “D (45%≤D<60%)”; (5 mg/L, Table 1) “B (75%≤B<90%)”; (20 mg/L, Table 1) “B (75%≤B<90%)”.
As for `CC/C(=N\OC)C(=O)N1CCC(c2nc(C3=NOC(c4c(F)cccc4F)C3)cs2)CC1` (stereo not shown) [Compound I-24], the Control effect entry by setting is: (1.25 mg/L, Table 1) “C (60%≤C<75%)”; (5 mg/L, Table 1) “B (75%≤B<90%)”; (20 mg/L, Table 1) “A (90%≤A≤100%)”.
For `CO/N=C(/C(=O)N1CCC(c2nc(C3=NOC(c4c(F)cccc4F)C3)cs2)CC1)c1cc(C)ccc1C` (stereo not shown) [Compound I-25], in that order: “C (60%≤C<75%)”, “B (75%≤B<90%)” and “A (90%≤A≤100%)”.
For `CCO/N=C(/C(=O)N1CCC(c2nc(C3=NOC(c4c(F)cccc4F)C3)cs2)CC1)c1cc(C)ccc1C` (stereo not shown) [Compound I-26], in that order: “D (45%≤D<60%)”, “D (45%≤D<60%)” and “C (60%≤C<75%)”.
Take `CCO/N=C(\C#N)C(=O)N1CCC(c2nc(C3=NOC(c4c(F)cccc4F)C3)cs2)CC1` (stereo not shown) [Compound I-28]: the Control effect result is, setting by setting: (5 mg/L, Table 1) “B (75%≤B<90%)”; (20 mg/L, Table 1) “A (90%≤A≤100%)”.
For the molecule `CCO/N=C/C(=O)N1CCC(c2nc(C3=NOC(c4c(F)cccc4F)C3)cs2)CC1` (stereo not shown) [Compound I-29], the Control effect entry runs as follows: (1.25 mg/L, Table 1) “A (90%≤A≤100%)”; (5 mg/L, Table 1) “A (90%≤A≤100%)”; (20 mg/L, Table 1) “A (90%≤A≤100%)”.
Take `CCO/C(C)=C/C(=O)N1CCC(c2nc(C3=NOC(c4c(F)cccc4F)C3)cs2)CC1` (stereo not shown) [Compound I-30]: the Control effect entry is “B (75%≤B<90%)” (1.25 mg/L, Table 1); “B (75%≤B<90%)” (5 mg/L, Table 1); “A (90%≤A≤100%)” (20 mg/L, Table 1).
With `COC(CC(=O)N1CCC(c2nc(C3=NOC(c4c(F)cccc4F)C3)cs2)CC1)OC` (stereo not shown) [II-1], the Control effect entry reads like this: (1.25 mg/L, Table 1) “A (90%≤A≤100%)”; (5 mg/L, Table 1) “A (90%≤A≤100%)”; (20 mg/L, Table 1) “A (90%≤A≤100%)”.
As to `CCOC(CC(=O)N1CCC(c2nc(C3=NOC(c4c(F)cccc4F)C3)cs2)CC1)OCC` (stereo not shown) [II-2], the Control effect entry is reported as “B (75%≤B<90%)” under setting [1]; “A (90%≤A≤100%)” under setting [2]; “A (90%≤A≤100%)” (1.25 mg/L, Table 1); “A (90%≤A≤100%)” under setting [3]; “A (90%≤A≤100%)” (5 mg/L, Table 1); “A (90%≤A≤100%)” (20 mg/L, Table 1).
With `CCCOC(CC(=O)N1CCC(c2nc(C3=NOC(c4c(F)cccc4F)C3)cs2)CC1)OCC` (stereo not shown) [II-4], where the note is “0.078 mg/L, in words”, the “efficacy compared with dimethomorph and cyazofamid” value was “superior to that of dimethomorph and cyazofamid”. Besides, the “efficacy compared with oxathiapiprolin” value (0.078 mg/L, in words) is “equivalent to that of oxathiapiprolin at the same concentration”. The Control effect (0.078 mg/L, re-screening) was at least 90%; the Control effect result under setting [1] is listed as “A (90%≤A≤100%)”; the Control effect entry under setting [2] is given as “A (90%≤A≤100%)”; the Control effect result (1.25 mg/L, Table 1) is on record as “A (90%≤A≤100%)”; the Control effect result under setting [3] was “A (90%≤A≤100%)”; the Control effect entry (5 mg/L, Table 1) is “A (90%≤A≤100%)”. For the same molecule, the Control effect result (20 mg/L, Table 1) is given as “A (90%≤A≤100%)”. Also, the bactericidal activity entry (re-screening, in words) is “excellent bactericidal activity”.
For `CCOC(CC(=O)N1CCC(c2nc(C3=NOC(c4c(F)cccc4F)C3)cs2)CC1)OCc1ccccc1` (stereo not shown) [II-5], the Control effect result reads like this: (5 mg/L, Table 1) “D (45%≤D<60%)”; (20 mg/L, Table 1) “A (90%≤A≤100%)”.
For `COC(OC)C(C)C(=O)N1CCC(c2nc(C3=NOC(c4c(F)cccc4F)C3)cs2)CC1` (stereo not shown) [II-6], in that order: “D (45%≤D<60%)” and “C (60%≤C<75%)”.
On the same counts, the results for `CCC(C(=O)N1CCC(c2nc(C3=NOC(c4c(F)cccc4F)C3)cs2)CC1)C(OC)OC` (stereo not shown) [II-7] are “D (45%≤D<60%)” and “B (75%≤B<90%)”.
Consider `CCCC(C(=O)N1CCC(c2nc(C3=NOC(c4c(F)cccc4F)C3)cs2)CC1)C(OC)OC` (stereo not shown) [II-8], for which the Control effect result is “D (45%≤D<60%)” (1.25 mg/L, Table 1); “C (60%≤C<75%)” (5 mg/L, Table 1); “A (90%≤A≤100%)” (20 mg/L, Table 1).
On the same counts, the results for `CCCCC(C(=O)N1CCC(c2nc(C3=NOC(c4c(F)cccc4F)C3)cs2)CC1)C(OC)OC` (stereo not shown) [II-9] are “D (45%≤D<60%)”, “B (75%≤B<90%)” and “A (90%≤A≤100%)”.
